Legend:
mmSTING = molecular target: T1, mmSTING (Mus musculus, UniProt Q3TBT3); conditions: covalent small-molecule inhibitor; cited from earlier work
T1 sequence (Q3TBT3 1-378): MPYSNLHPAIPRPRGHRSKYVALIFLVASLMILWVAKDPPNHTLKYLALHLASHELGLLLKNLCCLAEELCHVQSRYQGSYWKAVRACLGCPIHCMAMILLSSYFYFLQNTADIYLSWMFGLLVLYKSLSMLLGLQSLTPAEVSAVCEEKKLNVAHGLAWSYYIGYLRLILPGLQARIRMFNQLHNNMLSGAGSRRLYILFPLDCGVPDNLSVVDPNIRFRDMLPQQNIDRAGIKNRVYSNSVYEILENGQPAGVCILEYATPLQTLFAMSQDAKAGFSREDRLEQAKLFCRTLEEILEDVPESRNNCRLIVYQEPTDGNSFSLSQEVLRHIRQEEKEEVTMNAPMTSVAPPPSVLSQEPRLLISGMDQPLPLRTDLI

hsSTING = hsSTING (Homo sapiens, UniProt Q86WV6); conditions: covalent small-molecule inhibitor; cited from earlier work
IBA1 [1] = test: Immunocytochemistry of IBA1 in poly (I:C)-stimulated BV2 microglial cells, integrated density (ImageJ); type: cell-based; conditions: pre-treated 2 h, then poly (I:C) 6 h, normalized to blank
Experimental: (§1) Experimental design: IMG or BV2 cells were plated in a 96-well or 6-well plate and allowed to adhere overnight. Plates were dosed with clonixeril for 2 hours and then LPS or polyinosinic-polycytidylic acid (polyIC) for 24 hours to induce inflammation. Ionized calcium-binding adaptor molecule 1 (IBA1) and pSTING expression were imaged and immunohistochemistry was measured (ImageJ).
Controls used are a blank (untreated); and 25 ng/ml poly (I:C) treatment for 6 h. Immunocytochemistry of BV2 cells pre-treated with a known STING inhibitor H151, clonixeril or a ketone analogue of clonixin (e.g., clonixin butyl ketone) for 2 h and then treated with poly (I:C) for 6 h, stained with IBA1 antibody (red) and DAPI (blue) to visualize nuclei. […] Separate channels were quantified by ImageJ for IBA1 (red) and DAPI (blue) pixel density. A ratio of red signal to blue signal was calculated for each image. Ratios were averaged for each experimental group and normalized to the blank (control) group.

IBA1 [2] = test: Immunocytochemistry of IBA1 in LPS-stimulated IMG cells, integrated density (ImageJ); type: cell-based; conditions: pre-treated 2 h, then LPS 24 h, normalized to blank
Experimental: as §1
(§2) Cells were untreated, or pre-treated with vehicle or STING-inhibitory compound clonixeril for 2 h and then treated with LPS for 24 h. Cells were then stained with DAPI (blue) to visualize nuclei, IBA1 or pSTING antibody (red). Images are presented separately for enhanced clarity. […] Error bars represent mean ±standard deviation (SD). Separate channels were quantified by ImageJ for IBA1 or pSTING (red) and DAPI (blue) pixel density. A ratio of red signal to blue signal was calculated for each image. Ratios were averaged for each experimental group and normalized to the blank (control) group.

pSTING [3] = test: Immunocytochemistry of pSTING in LPS-stimulated IMG cells, integrated density (ImageJ); type: cell-based; conditions: pre-treated 2 h, then LPS 24 h, normalized to blank
Experimental: as §1, §2

pSTING [4] = test: Immunocytochemistry of pSTING in poly (I:C)-stimulated HT22 hippocampal cells, integrated density (ImageJ); type: cell-based, mouse; conditions: pre-treated 2 h, then poly (I:C) 6 h, normalized to blank
Experimental: Cells were untreated, or pre-treated with vehicle or STING-inhibitory compounds H151, a ketone analog of clonixin (e.g., clonixin butyl ketone), clonixeril (CXL) for 2 h and then treated with poly (I:C) for 6 h. Cells were then stained with DAPI (blue, top row) to visualize nuclei and pSTING antibody (red, bottom 5 row). Images are presented separately for enhanced clarity. Scale bar 100 μm.
Error bars represent mean ±standard deviation (SD). Separate channels were quantified by ImageJ for pSTING (red) and DAPI (blue) pixel density. A ratio of red signal to blue signal was calculated for each image. Ratios were averaged for each experimental group and normalized to the blank (control) group.

Irf-3 = test: qPCR for Irf-3 in PolyIC-stimulated BV2 cells; type: cell-based; conditions: dosed 2 hours, then PolyIC 24 hours
Experimental: (§3) Experimental design: BV2 cells were plated in a 6-well plate and allowed to adhere overnight. Plates were dosed with clonixin butyl ketone or H151 for 2 hours and then PolyIC for 24 hours to induce inflammation. qPCR was performed to measure expression of CCL20 and IL-6 inflammatory genes and immunomodulatory Irf-3 gene.

IL-6 = test: qPCR for IL-6 in PolyIC-stimulated BV2 cells; type: cell-based; conditions: dosed 2 hours, then PolyIC 24 hours
Experimental: as §3

CCL20 = test: qPCR for CCL20 in PolyIC-stimulated BV2 cells; type: cell-based; conditions: dosed 2 hours, then PolyIC 24 hours
Experimental: as §3

[5] = test system: phosphorylated STING (pSTING); test: Western blot for pSTING in poly (I:C)-stimulated HT22 hippocampal cells; type: cell-based, mouse; conditions: 100 pM pre-treatment 2 h, then poly (I:C) 6 h
Experimental: Immunoblot analysis of phosphorylated STING (pSTING) and β-actin in HT22 mouse hippocampal cells. Cells were pre-treated with 100 pM ketone analog of clonixin (e.g., clonixin butyl ketone) for 2 h, followed by 6 h stimulation with poly (I:C). Cell lysates were harvested at indicated time points using RIPA buffer supplemented with 1× Halt Protease and Phosphatase Inhibitor Cocktail, quantified via Bradford assay, and normalized to 20 μg protein per well. Lysates were resolved by SDS-PAGE and probed with rabbit polyclonal anti-pSTING and anti-β-actin antibodies.

hsSTING, sequence (Q86WV6 whole entry H232R): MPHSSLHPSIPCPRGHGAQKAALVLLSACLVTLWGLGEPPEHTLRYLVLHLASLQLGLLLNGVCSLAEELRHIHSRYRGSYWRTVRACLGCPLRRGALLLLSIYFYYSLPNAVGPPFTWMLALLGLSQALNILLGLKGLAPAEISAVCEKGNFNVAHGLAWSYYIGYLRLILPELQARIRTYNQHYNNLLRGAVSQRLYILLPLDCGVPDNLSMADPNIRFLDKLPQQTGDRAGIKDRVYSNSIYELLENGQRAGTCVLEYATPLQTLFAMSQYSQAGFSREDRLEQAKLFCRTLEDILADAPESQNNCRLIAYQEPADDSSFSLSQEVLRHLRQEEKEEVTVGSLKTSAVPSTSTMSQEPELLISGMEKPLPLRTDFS

Row | Compound | inhibition of mmSTING (mmSTING) | inhibition of hsSTING (hsSTING) | IBA1 integrated density (IBA1 [1]) | IBA1 integrated density (IBA1 [2]) | pSTING integrated density (pSTING [3]) | pSTING (immunocytochemistry, integrated density) (pSTING [4]) | expression of interferon regulatory gene Irf3 (qPCR) (Irf-3) | expression of IL-6 (qPCR) (IL-6) | CCL20 expression at 1 picomolar concentration (CCL20) | expression of CCL20 (qPCR) (CCL20) | IL-6 expression at 1 picomolar concentration (IL-6; 1 picomolar) | poly (I:C)-induced STING phosphorylation (Western blot, normalized to β-actin) [5]
1 | CCCCCCc1ccc(NC(=O)c2ccc([N+](=O)[O-])o2)cc1 [C-171, N-(4-hexylphenyl)-5-nitro-2-furancarboxamide] | efficiently inhibits | efficiently inhibits |  |  |  |  |  |  |  |  |  | 
2 | clonixeril |  |  | reduction | reduction | reduction | reduction |  |  |  |  |  | 
3 | CCc1ccc(NC(=O)Nc2c[nH]c3ccccc23)cc1 [H151] |  |  | reduction |  |  | reduction | reduced significantly | significantly decreased | but not H151 showed a significant reduction | significantly decreased |  | 
4 | CCCCC(=O)c1cccnc1Nc1cccc(Cl)c1C [clonixin butyl ketone, {2-[(3-chloro-2-methylphenyl)amino]pyridin-3-yl}-1-pentanone] |  |  | reduction |  |  | reduction | reduced significantly | significantly decreased | significant reduction | significantly decreased | significant reduction | inhibition

Source: patent US20250352525A1, “COMPOSITIONS AND METHODS OF TREATING TRAUMATIC BRAIN INJURY” (United States Government As Represented By The Department …, priority 2024, published 2025)
